Test results taken from ChEMBL document CHEMBL4507318, “Data for DCP probe BAY-985” (2021).

Tests used:
[1] = target: Serine/threonine-protein kinase ULK3 (Homo sapiens) (UniProt Q6PHR2)
[2] = target: Ribosomal protein S6 kinase alpha-4 (Homo sapiens) (UniProt O75676)
[3] = target: STE20-like serine/threonine-protein kinase (Homo sapiens) (UniProt Q9H2G2)
[4] = target: Phosphatidylinositol 3-kinase C2 domain-containing subunit gamma (Homo sapiens) (UniProt O75747)
[5] = target: Fibroblast growth factor receptor 3 (Homo sapiens) (UniProt P22607)
[6] = target: Epithelial discoidin domain-containing receptor 1 (Homo sapiens) (UniProt Q08345)
Epithelial discoidin domain-containing receptor 1 (Homo sapiens), sequence (Q08345 whole entry, the tested form may be a part): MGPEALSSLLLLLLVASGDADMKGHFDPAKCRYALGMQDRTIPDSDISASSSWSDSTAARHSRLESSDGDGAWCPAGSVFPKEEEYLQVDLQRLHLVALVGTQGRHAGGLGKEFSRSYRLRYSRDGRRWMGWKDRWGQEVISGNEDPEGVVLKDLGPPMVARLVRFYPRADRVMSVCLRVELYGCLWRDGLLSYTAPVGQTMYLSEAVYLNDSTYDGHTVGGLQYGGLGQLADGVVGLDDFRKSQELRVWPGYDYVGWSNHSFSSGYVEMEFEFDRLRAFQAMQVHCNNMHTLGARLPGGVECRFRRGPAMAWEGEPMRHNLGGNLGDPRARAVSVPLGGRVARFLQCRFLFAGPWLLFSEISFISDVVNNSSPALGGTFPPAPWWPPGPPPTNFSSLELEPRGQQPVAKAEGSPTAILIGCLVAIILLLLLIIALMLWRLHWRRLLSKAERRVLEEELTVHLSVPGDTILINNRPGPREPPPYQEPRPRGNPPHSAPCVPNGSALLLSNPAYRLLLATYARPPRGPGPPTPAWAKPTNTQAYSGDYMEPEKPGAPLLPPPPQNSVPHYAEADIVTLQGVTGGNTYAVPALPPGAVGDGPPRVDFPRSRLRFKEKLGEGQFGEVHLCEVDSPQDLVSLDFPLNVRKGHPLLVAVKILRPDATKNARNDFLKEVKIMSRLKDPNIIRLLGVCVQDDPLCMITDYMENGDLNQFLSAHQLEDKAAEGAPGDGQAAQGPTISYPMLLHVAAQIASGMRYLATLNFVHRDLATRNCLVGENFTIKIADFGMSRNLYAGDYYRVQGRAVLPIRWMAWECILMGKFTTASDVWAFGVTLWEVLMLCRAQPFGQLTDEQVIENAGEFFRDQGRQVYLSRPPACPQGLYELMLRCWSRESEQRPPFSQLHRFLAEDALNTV

[7] = target: Protein-tyrosine kinase 6 (Homo sapiens) (UniProt Q13882)
[8] = target: Bone morphogenetic protein receptor type-2 (Homo sapiens) (UniProt Q13873)
[9] = tested on: Serine/threonine-protein kinase B-raf (Homo sapiens), P15056 [V600E]
[10] = target: Hepatocyte growth factor receptor (Homo sapiens) (UniProt P08581)
Hepatocyte growth factor receptor (Homo sapiens), sequence (P08581 whole entry): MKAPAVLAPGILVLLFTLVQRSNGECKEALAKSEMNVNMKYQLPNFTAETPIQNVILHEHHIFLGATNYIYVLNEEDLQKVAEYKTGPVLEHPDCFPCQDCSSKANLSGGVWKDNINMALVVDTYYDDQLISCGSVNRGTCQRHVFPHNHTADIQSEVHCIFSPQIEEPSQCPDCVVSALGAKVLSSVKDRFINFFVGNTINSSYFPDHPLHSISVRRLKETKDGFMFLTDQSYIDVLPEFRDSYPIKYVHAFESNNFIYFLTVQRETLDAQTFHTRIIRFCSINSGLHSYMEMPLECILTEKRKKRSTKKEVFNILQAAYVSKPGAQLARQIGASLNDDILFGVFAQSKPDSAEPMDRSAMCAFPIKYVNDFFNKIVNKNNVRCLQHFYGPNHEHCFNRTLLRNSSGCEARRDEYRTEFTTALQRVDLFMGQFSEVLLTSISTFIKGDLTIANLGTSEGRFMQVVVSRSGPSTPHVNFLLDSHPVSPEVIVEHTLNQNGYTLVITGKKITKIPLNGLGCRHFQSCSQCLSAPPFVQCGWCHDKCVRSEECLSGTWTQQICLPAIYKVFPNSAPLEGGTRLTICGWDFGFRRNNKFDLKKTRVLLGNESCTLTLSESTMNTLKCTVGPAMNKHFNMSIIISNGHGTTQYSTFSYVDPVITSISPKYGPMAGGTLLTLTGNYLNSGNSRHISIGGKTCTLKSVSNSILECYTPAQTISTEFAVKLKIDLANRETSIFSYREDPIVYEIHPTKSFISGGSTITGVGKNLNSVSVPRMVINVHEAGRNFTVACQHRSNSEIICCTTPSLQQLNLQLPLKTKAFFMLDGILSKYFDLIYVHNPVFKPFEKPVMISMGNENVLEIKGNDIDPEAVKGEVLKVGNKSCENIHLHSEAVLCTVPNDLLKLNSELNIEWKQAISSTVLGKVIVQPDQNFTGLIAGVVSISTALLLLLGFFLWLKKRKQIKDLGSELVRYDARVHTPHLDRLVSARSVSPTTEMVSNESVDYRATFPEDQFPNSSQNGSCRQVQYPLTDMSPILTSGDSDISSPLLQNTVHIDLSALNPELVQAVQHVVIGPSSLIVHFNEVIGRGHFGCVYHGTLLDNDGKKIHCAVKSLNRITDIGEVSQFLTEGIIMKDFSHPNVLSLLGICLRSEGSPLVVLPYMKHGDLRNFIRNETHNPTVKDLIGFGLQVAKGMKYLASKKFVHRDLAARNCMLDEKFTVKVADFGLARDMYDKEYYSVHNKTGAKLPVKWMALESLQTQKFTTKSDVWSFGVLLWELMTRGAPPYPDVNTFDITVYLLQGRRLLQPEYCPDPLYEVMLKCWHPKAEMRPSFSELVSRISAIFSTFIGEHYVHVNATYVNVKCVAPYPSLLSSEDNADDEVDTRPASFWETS

[11] = target: Serine/threonine-protein kinase Nek3 (Homo sapiens) (UniProt P51956)
[12] = target: Phosphatidylinositol 5-phosphate 4-kinase type-2 gamma (Homo sapiens) (UniProt Q8TBX8)
[13] = target: Proto-oncogene tyrosine-protein kinase receptor Ret (Homo sapiens) (UniProt P07949)
[14] = tested on: Receptor-type tyrosine-protein kinase FLT3 (Homo sapiens), P36888 [UNDEFINED MUTATION]
[15] = target: Tyrosine-protein kinase JAK3 (Homo sapiens) (UniProt P52333)
[16] = target: MAP kinase-activated protein kinase 2 (Homo sapiens) (UniProt P49137)
[17] = target: Serine/threonine-protein kinase TAO2 (Homo sapiens) (UniProt Q9UL54)
[18] = tested on: Receptor-type tyrosine-protein kinase FLT3 (Homo sapiens), P36888 [N841I]
[19] = target: Cyclin-dependent kinase 17 (Homo sapiens) (UniProt Q00537)
[20] = tested on: Mast/stem cell growth factor receptor Kit (Homo sapiens), P10721 [V559D,V654A]
[21] = target: Bone morphogenetic protein receptor type-1A (Homo sapiens) (UniProt P36894)
[22] = tested on: Phosphatidylinositol 4,5-bisphosphate 3-kinase catalytic subunit alpha isoform (Homo sapiens), P42336 [I800L]
[23] = target: Serine/threonine-protein kinase/endoribonuclease IRE1 (Homo sapiens) (UniProt O75460)
[24] = target: TRAF2 and NCK-interacting protein kinase (Homo sapiens) (UniProt Q9UKE5)
TRAF2 and NCK-interacting protein kinase (Homo sapiens), sequence (Q9UKE5 whole entry, looked up): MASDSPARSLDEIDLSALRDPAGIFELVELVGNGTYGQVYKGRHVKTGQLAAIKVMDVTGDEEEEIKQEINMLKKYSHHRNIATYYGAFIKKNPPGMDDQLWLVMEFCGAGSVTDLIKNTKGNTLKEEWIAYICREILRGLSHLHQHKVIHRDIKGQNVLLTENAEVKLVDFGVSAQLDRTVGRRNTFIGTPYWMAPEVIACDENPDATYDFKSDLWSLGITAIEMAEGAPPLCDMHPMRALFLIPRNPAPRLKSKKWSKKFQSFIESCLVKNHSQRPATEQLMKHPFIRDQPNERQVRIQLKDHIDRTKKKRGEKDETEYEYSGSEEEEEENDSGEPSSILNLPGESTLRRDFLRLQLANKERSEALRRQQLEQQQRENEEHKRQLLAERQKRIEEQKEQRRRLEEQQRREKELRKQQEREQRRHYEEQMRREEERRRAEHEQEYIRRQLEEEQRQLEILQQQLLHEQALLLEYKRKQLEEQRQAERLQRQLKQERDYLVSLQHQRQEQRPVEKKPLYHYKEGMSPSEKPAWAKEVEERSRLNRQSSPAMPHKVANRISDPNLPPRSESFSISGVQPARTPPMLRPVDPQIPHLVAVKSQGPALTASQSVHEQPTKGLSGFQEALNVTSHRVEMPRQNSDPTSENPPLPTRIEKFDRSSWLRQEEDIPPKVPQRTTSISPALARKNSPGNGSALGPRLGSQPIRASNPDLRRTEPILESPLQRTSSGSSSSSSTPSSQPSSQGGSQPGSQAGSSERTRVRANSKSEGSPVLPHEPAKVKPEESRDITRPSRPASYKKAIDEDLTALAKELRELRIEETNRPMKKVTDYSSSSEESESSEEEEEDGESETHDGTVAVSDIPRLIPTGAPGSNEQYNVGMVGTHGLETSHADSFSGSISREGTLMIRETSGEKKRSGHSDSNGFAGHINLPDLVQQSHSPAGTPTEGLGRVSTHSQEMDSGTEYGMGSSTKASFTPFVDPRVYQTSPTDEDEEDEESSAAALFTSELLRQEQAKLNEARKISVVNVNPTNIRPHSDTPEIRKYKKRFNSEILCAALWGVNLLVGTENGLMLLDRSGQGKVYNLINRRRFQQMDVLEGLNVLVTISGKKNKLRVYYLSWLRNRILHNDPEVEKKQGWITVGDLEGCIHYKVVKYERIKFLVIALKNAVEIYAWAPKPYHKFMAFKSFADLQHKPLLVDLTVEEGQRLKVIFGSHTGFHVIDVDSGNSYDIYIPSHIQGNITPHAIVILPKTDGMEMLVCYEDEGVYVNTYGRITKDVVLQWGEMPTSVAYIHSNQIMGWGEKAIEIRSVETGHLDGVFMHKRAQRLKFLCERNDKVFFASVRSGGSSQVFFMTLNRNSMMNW

[25] = target: Serine/threonine-protein kinase VRK2 (Homo sapiens) (UniProt Q86Y07)
[26] = target: Megakaryocyte-associated tyrosine-protein kinase (Homo sapiens) (UniProt P42679)
[27] = target: Ephrin type-A receptor 3 (Homo sapiens) (UniProt P29320)
[28] = target: Ephrin type-A receptor 6 (Homo sapiens) (UniProt Q9UF33)
Ephrin type-A receptor 6 (Homo sapiens), sequence (Q9UF33 whole entry, canonical isoform): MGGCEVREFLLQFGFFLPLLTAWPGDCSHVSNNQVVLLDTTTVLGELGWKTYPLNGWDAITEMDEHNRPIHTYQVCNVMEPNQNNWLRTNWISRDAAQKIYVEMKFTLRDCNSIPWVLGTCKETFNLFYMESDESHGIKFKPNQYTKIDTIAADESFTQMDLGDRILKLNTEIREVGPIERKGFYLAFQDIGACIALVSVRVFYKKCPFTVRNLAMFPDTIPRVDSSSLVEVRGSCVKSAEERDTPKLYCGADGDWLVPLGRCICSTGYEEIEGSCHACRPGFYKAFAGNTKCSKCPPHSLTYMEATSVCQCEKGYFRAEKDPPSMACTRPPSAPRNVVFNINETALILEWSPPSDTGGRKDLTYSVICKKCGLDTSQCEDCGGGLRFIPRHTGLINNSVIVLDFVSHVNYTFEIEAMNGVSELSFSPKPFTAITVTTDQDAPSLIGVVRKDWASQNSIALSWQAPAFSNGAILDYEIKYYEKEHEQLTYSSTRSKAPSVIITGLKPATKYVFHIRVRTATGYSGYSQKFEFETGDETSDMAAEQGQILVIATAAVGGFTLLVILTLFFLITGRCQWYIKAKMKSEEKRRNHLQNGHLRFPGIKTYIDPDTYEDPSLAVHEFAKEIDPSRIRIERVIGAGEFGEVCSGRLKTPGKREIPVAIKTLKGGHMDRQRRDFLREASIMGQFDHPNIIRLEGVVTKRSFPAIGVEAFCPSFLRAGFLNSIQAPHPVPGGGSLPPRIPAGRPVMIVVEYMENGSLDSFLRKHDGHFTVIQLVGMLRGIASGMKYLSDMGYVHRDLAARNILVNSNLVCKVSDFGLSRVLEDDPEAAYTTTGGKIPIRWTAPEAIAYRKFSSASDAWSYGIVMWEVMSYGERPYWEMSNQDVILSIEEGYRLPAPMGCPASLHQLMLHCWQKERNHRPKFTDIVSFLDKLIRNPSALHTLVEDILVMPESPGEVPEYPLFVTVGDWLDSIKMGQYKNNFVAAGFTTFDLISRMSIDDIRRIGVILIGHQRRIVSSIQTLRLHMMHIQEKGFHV

[29] = target: Casein kinase I isoform alpha (Homo sapiens) (UniProt P48729)
[30] = tested on: Phosphatidylinositol 4,5-bisphosphate 3-kinase catalytic subunit alpha isoform (Homo sapiens), P42336 [E545A]
[31] = target: Calcium/calmodulin-dependent protein kinase type 1B (Homo sapiens) (UniProt Q6P2M8)
[32] = target: Tyrosine-protein kinase receptor UFO (Homo sapiens) (UniProt P30530)
[33] = target: Serine/threonine-protein kinase PknB (Mycobacterium tuberculosis) (UniProt P9WI81)
[34] = target: Tyrosine-protein kinase receptor Tie-1 (Homo sapiens) (UniProt P35590)
[35] = target: Serine/threonine-protein kinase PLK4 (Homo sapiens) (UniProt O00444)
[36] = target: Mitogen-activated protein kinase 8 (Homo sapiens) (UniProt P45983)
Mitogen-activated protein kinase 8 (Homo sapiens), sequence (P45983 whole entry): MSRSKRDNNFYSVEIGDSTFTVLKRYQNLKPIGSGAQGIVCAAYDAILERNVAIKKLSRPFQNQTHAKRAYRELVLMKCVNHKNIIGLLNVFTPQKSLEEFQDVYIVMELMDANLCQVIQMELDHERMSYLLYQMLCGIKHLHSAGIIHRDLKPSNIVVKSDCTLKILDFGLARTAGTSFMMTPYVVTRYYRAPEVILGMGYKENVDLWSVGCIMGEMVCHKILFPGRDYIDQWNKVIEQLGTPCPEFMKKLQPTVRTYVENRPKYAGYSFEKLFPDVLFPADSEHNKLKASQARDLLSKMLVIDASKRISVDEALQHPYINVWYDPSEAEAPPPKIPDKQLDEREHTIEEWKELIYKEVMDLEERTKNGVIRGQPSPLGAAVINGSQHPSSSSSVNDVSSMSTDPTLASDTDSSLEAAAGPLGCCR

[37] = tested on: Mast/stem cell growth factor receptor Kit (Homo sapiens), P10721 [L576P]
[38] = target: Tyrosine-protein kinase Tec (Homo sapiens) (UniProt P42680)
[39] = target: RAC-alpha serine/threonine-protein kinase (Homo sapiens) (UniProt P31749)
[40] = target: Cyclin-dependent kinase 8 (Homo sapiens) (UniProt P49336)
[41] = target: BMP-2-inducible protein kinase (Homo sapiens) (UniProt Q9NSY1)
[42] = target: Protein kinase C iota type (Homo sapiens) (UniProt P41743)
[43] = target: Tyrosine-protein kinase ABL2 (Homo sapiens) (UniProt P42684)
[44] = target: Serine/threonine-protein kinase PLK2 (Homo sapiens) (UniProt Q9NYY3)
[45] = target: Cyclin-dependent kinase 19 (Homo sapiens) (UniProt Q9BWU1)
[46] = Compound concentration 1000.0 nM
[47] = Compound concentration 100.0 nM

CN(C)c1ncnc(-c2ccc3nc(Nc4cc(CN5CCN(C(=O)CC(F)(F)F)CC5)ccn4)[nH]c3c2)c1Cl [BAY-440]
residual activity [1, 46]: 61% | residual activity [2, 46]: 80% | residual activity [3, 46]: 100% | residual activity [4, 46]: 83% | residual activity [5, 46]: 100% | residual activity [6, 46]: 75% | residual activity [7, 46]: 86% | residual activity [8, 46]: 61% | residual activity [9, 46]: 84% | residual activity [10, 46]: 69% | residual activity [11, 46]: 69% | residual activity [12, 46]: 95% | residual activity [13, 46]: 77% | residual activity [14, 46]: 86% | residual activity [15, 46]: 71% | residual activity [16, 46]: 100% | residual activity [17, 46]: 80% | residual activity [18, 46]: 53% | residual activity [19, 46]: 100% | residual activity [20, 46]: 100% | residual activity [21, 46]: 95% | residual activity [22, 46]: 35% | residual activity [23, 46]: 62% | residual activity [24, 46]: 53% | residual activity [25, 46]: 88% | residual activity [26, 46]: 69% | residual activity [27, 46]: 63% | residual activity [28, 46]: 100% | residual activity [29, 46]: 89% | residual activity [30, 46]: 100% | residual activity [31, 46]: 72% | residual activity [32, 46]: 57% | residual activity [33, 46]: 100% | residual activity [34, 46]: 66% | residual activity [35, 46]: 76% | residual activity [36, 46]: 63% | residual activity [37, 46]: 87% | residual activity [38, 46]: 100% | residual activity [39, 46]: 100% | residual activity [40, 46]: 90% | residual activity [41, 46]: 100% | residual activity [42, 46]: 79% | residual activity [43, 46]: 71% | residual activity [44, 46]: 100% | residual activity [45, 46]: 75%

C[C@H](c1ccnc(Nc2nc3ccc(-c4cc(N(C)C)ncn4)cc3[nH]2)c1)N1CCN(C(=O)CC(F)(F)F)CC1 [BAY-985]
residual activity [1, 47]: 90% | residual activity [2, 47]: 100% | residual activity [3, 47]: 99% | residual activity [4, 47]: 94% | residual activity [5, 47]: 100% | residual activity [6, 47]: 100% | residual activity [7, 47]: 85% | residual activity [8, 47]: 100% | residual activity [9, 47]: 100% | residual activity [10, 47]: 100% | residual activity [11, 47]: 100% | residual activity [12, 47]: 96% | residual activity [13, 47]: 100% | residual activity [14, 47]: 100% | residual activity [15, 47]: 83% | residual activity [16, 47]: 100% | residual activity [17, 47]: 100% | residual activity [18, 47]: 43% | residual activity [19, 47]: 100% | residual activity [20, 47]: 100% | residual activity [21, 47]: 97% | residual activity [22, 47]: 100% | residual activity [23, 47]: 86% | residual activity [24, 47]: 96% | residual activity [25, 47]: 94% | residual activity [26, 47]: 95% | residual activity [27, 47]: 100% | residual activity [28, 47]: 93% | residual activity [29, 47]: 100% | residual activity [30, 47]: 100% | residual activity [31, 47]: 100% | residual activity [32, 47]: 100% | residual activity [33, 47]: 91% | residual activity [34, 47]: 85% | residual activity [35, 47]: 96% | residual activity [36, 47]: 98% | residual activity [37, 47]: 91% | residual activity [38, 47]: 100% | residual activity [39, 47]: 100% | residual activity [40, 47]: 96% | residual activity [41, 47]: 100% | residual activity [42, 47]: 100% | residual activity [43, 47]: 100% | residual activity [44, 47]: 100% | residual activity [45, 47]: 93%
